From BindingDB's records for doi:10.1124/jpet.106.102897 (University of Kansas, 2006)
Several values for one entry are separate records, joined by “and”; a condition that tells them apart may be missing. Identical values can stand only once.

Key:
Histamine H1 receptor [1] = target: Histamine H1 receptor (Homo sapiens, UniProt P35367)
Histamine H1 receptor [2] = target: Histamine H1 receptor (Cavia porcellus, UniProt P31389)
Sequence of Histamine H1 receptor (Cavia porcellus, UniProt P31389) (P31389 whole entry): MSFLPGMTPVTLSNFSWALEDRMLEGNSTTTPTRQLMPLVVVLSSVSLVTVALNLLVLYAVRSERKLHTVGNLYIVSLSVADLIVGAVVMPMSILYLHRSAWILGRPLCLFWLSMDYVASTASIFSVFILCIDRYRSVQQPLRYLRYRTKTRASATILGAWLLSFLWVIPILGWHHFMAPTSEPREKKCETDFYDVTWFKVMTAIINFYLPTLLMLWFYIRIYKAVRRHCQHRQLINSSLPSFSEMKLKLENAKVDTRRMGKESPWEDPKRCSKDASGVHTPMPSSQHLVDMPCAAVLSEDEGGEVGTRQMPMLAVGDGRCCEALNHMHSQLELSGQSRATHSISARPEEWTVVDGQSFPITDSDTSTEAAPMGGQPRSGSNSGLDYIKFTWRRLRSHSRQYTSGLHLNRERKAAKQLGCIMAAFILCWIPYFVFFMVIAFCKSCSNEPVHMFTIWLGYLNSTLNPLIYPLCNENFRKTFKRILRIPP

Sequence of Histamine H1 receptor (Homo sapiens, UniProt P35367) (P35367 whole entry): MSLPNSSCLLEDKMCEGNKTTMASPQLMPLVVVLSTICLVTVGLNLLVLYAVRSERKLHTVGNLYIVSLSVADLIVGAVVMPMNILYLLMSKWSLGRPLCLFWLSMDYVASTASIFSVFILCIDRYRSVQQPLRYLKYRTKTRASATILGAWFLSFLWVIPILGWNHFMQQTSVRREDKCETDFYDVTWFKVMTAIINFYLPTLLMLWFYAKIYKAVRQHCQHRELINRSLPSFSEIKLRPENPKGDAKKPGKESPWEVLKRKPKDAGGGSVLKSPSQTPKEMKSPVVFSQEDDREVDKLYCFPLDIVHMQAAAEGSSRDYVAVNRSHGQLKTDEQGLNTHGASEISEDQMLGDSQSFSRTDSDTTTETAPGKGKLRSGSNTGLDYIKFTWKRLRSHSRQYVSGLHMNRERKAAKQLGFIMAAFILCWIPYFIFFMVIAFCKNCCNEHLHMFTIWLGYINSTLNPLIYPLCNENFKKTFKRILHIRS

| Structure (SMILES) | Ki (Histamine H1 receptor [1]) | Ki (Histamine H1 receptor [2]) |
| --- | --- | --- |
| CC(C(=O)NC(N)=NCCCc1cnc[nH]1)C1CCCCC1 (configuration not stated) [UR-AK59] | 6000 nM and 2300 nM | 11000 nM |
| CC(C(=O)NC(N)=NCCCc1cnc[nH]1)c1ccccc1 (configuration not stated) [UR-AK68] | 3500 nM |  |
| CC(CC(=O)NC(N)=NCCCc1cnc[nH]1)C1CCCCC1 (configuration not stated) [UR-AK24] |  | 2600 nM and 1600 nM |
| NC(=NCCCc1cnc[nH]1)NC(=O)CC1CCCCC1 [UR-AK62] | 7000 nM | 4700 nM |

Second part, the compound after the results:

| Ki (Histamine H1 receptor [1]) | Ki (Histamine H1 receptor [2]) | Structure (SMILES) |
| --- | --- | --- |
| 2900 nM | 440 nM | N=C(NCCCc1c[nH]cn1)NC(=O)CCCCc1ccccc1 [UR-AK22] |
| 14000 nM | 2200 nM | N=C(NCCCc1c[nH]cn1)NC(=O)CCCc1ccccc1 [UR-AK67] |
| 990 nM | 350 nM | N=C(NCCCc1c[nH]cn1)NC(=O)CCCC1CCCCC1 [UR-AK64] |
